Experiments:
Format in all cases: cell-based, mouse
[1] = test system: M2 macrophages (bone marrow derived macrophages polarized with IL4/IL13); assay: M2 polarization of pre-treated BMDMs, CD206 marker by flow cytometry; conditions: naïve BMDMs pre-treated with compound, then polarized to M2 with IL4/IL13; FIG. 1
Description: (§1) Bone marrow derived macrophages (BMDMs): For macrophage isolation, bone marrow from 6-12 weeks old C57BL/6 mouse was used following an IACUC approved protocol. Briefly, femurs and tibia bones were isolated after removing the skeletal muscles. The bone marrow was flushed with RPMI complete medium supplemented with non-essential amino acids. A single-cell suspension of bone marrow was prepared with repeated pipetting and incubated with 20 ng/mL of mouse recombinant M-CSF (Biolegend) at 37° C. for 4 days to differentiate into macrophages.
Flow cytometry: Flow cytometry was performed following the protocol described previously. Knox et al., Sci Rep. 2019 Oct. 10; 9(1):14824. doi: 10.1038/s41598-019-51403-6. Briefly, mice were euthanized following the IACUC protocol, and tumor cells were processed into a single cell suspension for analysis by flow cytometry with tumor digestion buffer. The following antibodies were used to stain cell surface markers expressed by different immune cells. All the antibodies were purchased from Biolegend (San Diego, CA) unless otherwise specified. Myeloid cell surface markers are as follows: APC anti-mouse CD80 (clone 16-10A1), PE/Cy7 anti-mouse CD206 (MMR) (clone C068C2), APC/Fire™ 750 anti-mouse CD45.2 (clone 104), FITC anti-mouse H-2 (clone M1/42), Brilliant Violet 785TM anti-mouse F4/80 (clone BM8), and Alexa Fluor® 700 anti-mouse CD3 (clone 17A2). […]

Arginase I = Arginase I gene expression by quantitative real-time PCR in pre-treated macrophages; conditions: FIG. 2
Description: as §1
(§2) Bone marrow derived macrophages (BMDMs) were differentiated into macrophages with M-CSF. These naïve macrophages were pre-treated with Nexturastat A (NextA) or 6-nitrobenzo[b]thiophene-1,1-dioxide (Stattic) and polarized to M2 macrophages with IL4/IL13. Pre-treatment with NextA and Stattic decreased polarization of M2 macrophages as indicated by flow cytometry.
(§3) Further validation of M2 polarization markers at gene expression levels by quantitative real-time PCR indicate that Arginase I, TGFβ, and FIZZ1, which are tumor-promoting factors, were decreased. FIG. 2, FIG. 3, and FIG. 4.

TGFβ = TGFβ gene expression by quantitative real-time PCR in pre-treated macrophages; conditions: FIG. 3
Description: as §1, §2, §3

FIZZ1 = FIZZ1 gene expression by quantitative real-time PCR in pre-treated macrophages; conditions: FIG. 4
Description: as §1, §2, §3

CCCCN(Cc1ccc(C(=O)NO)cc1)C(=O)Nc1ccccc1 [NextA, Nexturastat A]
decreased: polarization of M2 macrophages (CD206 as marker, flow cytometry) [1] | Arginase I expression level (M2 polarization marker) (Arginase I) | TGFβ expression level (M2 polarization marker) (TGFβ) | FIZZ1 expression level (M2 polarization marker) (FIZZ1)

O=[N+]([O-])c1ccc2c(c1)S(=O)(=O)C=C2 [Stattic, 6-nitrobenzo[b]thiophene-1,1-dioxide]
decreased: polarization of M2 macrophages (CD206 as marker, flow cytometry) [1] | Arginase I expression level (M2 polarization marker) (Arginase I) | TGFβ expression level (M2 polarization marker) (TGFβ) | FIZZ1 expression level (M2 polarization marker) (FIZZ1)

Source: patent publication US20230405118A1, “STAT-ACTIVATED MACROPHAGES, COMPOSITIONS, AND USES THEREOF” (THE GEORGE WASHINGTON UNIVERSITY, A CONGRESSIONALLY …, priority 2020, published 2023)
